{
  "source": "patent US11179452B2",
  "about": "“Antigen specific multi epitope vaccines” (priority 2006, dated 2021)",
  "key": {"HT-29": {"test_system": "HT-29", "assay": "In vitro cytotoxic assay (CTL) of ImMucin-stimulated HLA-A2.1 positive T-cell clone", "assay_type": "cell-based", "details": "HT-29 Human Colon Carcinoma, MUC1 −, ratio 1:50", "method": "(§1) Effector cells were ImMucin specific enriched T-Cell clone. Viable lymphocytes (effector cells), were centrifugation, resuspended in RPMI-HEPES medium, and admixed at different ratios with 5×10^3 35S methionine-labeled, tumor cells. CTL assays were performed in U-shaped microtiter wells, at 37° C., 5% CO2 for 5 hours. Cultures were terminated by centrifugation at 1000 rpm for 10 min at […]. A total of 100 µl of the supernatants was mixed with scintillation fluid and measured in a □□ counter (Becton Dickinson Canberra Australia). Percentage of specific lysis was calculated as follows: % lysis=(cpm in experimental well−cpm spontaneous release)/(cpm maximal release−cpm spontaneous release)×100. Spontaneous release was determined by incubation of 100 µl-labeled target cells with 100 µl of medium. Maximal release was determined by lysis of target cells in 100 µl 10% TrytonX-100.\n(§2) In order to further evaluate the class II/class I cross presentation as well as the specificity and function of the T-cell clones, their class I restricted lysis potential was analyzed. For this assay the clones were screened for Class I HLA-A2.1 expression and their potential to lyse MUC1 and HLA-A2.1 positive and negative cell-lines was evaluated. […] The results summarized in Table 10 show a MUC1 as well as HLA-A2.1-restricted lysis. A breast tumor cell such as MDA-MB-231 which expresses both MUC1 and HLA-A2.1 was lysed effectively (23%), while another breast tumor cell line MDA-MB-468 which expresses only MUC1 but not the HLA-2.1 was not lysed al all. Other control cell-lines didn't manifest any lysis (see table 10)."}, "K562": {"test_system": "K562", "assay": "In vitro cytotoxic assay (CTL) of ImMucin-stimulated HLA-A2.1 positive T-cell clone", "assay_type": "cell-based", "details": "K562 Human Myalo Leukeima, MUC1 +, ratio 1:50", "method": "as §1, §2"}, "MDA-MB-231": {"test_system": "MDA-MB-231", "assay": "In vitro cytotoxic assay (CTL) of ImMucin-stimulated HLA-A2.1 positive T-cell clone", "assay_type": "cell-based", "details": "MDA-MB-231 Human Brest Carcinoma, MUC1 +++, ratio 1:50", "method": "as §1, §2"}, "Molt-4": {"test_system": "Molt-4", "assay": "In vitro cytotoxic assay (CTL) of ImMucin-stimulated HLA-A2.1 positive T-cell clone", "assay_type": "cell-based", "details": "Molt-4 Human T cell Leukemia, MUC1 −, ratio 1:50", "method": "as §1, §2"}, "MDA-MB-486": {"test_system": "MDA-MB-486", "assay": "In vitro cytotoxic assay (CTL) of ImMucin-stimulated HLA-A2.1 positive T-cell clone", "assay_type": "cell-based", "details": "MDA-MB-486 Human Brest Carcinoma, MUC1 ++, ratio 1:50", "method": "as §1, §2"}, "[1]": {"test_system": "ImMucin specific enriched T-cell clone", "assay": "ELISA of cytokine secretion during development of the ImMucin-specific T cell subpopulation by repeated stimulation (FIG. 1)", "assay_type": "cell-based, human", "text": "Thawed PBLs underwent 1st stimulation with ImMucin pulsed Autologues DC at a ratio of 20:1 and cultured for 7 days in dedicated T cell Medium. T cell medium contained RPMI medium supplemented with 10% FCS, L-Glutamine, Sodium Pyruvate, MEM-EAGLE non-essential amino-acids, HEPES and Gentamycin Sulphate (Bet-Haemek Industries, IL) as well as with 50 IU/ml of recombinant IL-7 (Cytolab IL). For the second stimulation, PBL were transferred to adherent autologues ImMucin-pulsed PBMC and cultured for additional 5 days in T cell Medium. At the end of the 5 days, medium was partial replaced with fresh medium containing 1 ug/ml of ImMucin and 50 IU/ml IL-2 for a third stimulation of 48 h at 37° C. Following the last stimulation ImMucin T cell line was checked for immune activation properties.\nCytokine release was studied during the culture of stimulated T-cells. The evaluated samples were collected from the T cell culture medium on day 2, 3, and 5 and stored until use at −20° C.\n[…] of the selected capture antibody (e.g. anti-Hu IFN-Gamma, or anti-Hu TNF-alfa or anti IL-2) were added to each well at the final concentration of 5 μg/ml in PBS. Plates were incubated for 2 h at R.T. or over night at 4° C. Next, […] of blocking solution were added for an incubation of 2 h at R.T. […] of evaluated samples were added in duplicate into 2 wells for 2 hours at RT. After 2 h of incubation at R.T plates were washed λ4 times in washing solution. In the next step, a Biotin-conjugated detection antibody (relevant to coated antibody) was added at a final concentration of 10 μg/ml in total volume of 100 μl for 1 h at R.T. Finally, 100 μl/well working dilution (1:10000 in Blocker solution) of Streptavidin-HRP were added to each well and incubated for 1 h at R.T.\nPlates were washed λ6 times with PBS-Tween (0.4%) and 100 μl/well of TMB/E Solution (CHEMICON, Catalog #ES001) was added. The plates were then exposed until blue color appeared in the wells of the positive control and no color was detected in the blank wells. To stop the color reaction, 50 μl/well of 10% of Sulfuric acid was added. The plates were counted in ELISA-Reader using a 450 nm filter.\nFor producing the specific T cell subpopulation PBL were stimulated three times for 7, 5 and 2 days with ImMucin presented via DC and PBMC. Following the 3rd stimulation the cells were evaluated against the different VXL epitopes."}, "[2]": {"test_system": "blood samples derived from naive donors", "assay": "Summary: ImMucin specific activation in blood samples of naive donors", "assay_type": "cell-based, human", "details": "out of 14 different blood samples from naive donors", "text": "In summary, out of 14 different blood samples derived from naive donors, in 12 ImMucin specific activation could be observed. It is therefore clear that ImMucin is able to induce antigen specific CD4^+ as well as CD8^+ T cell activation which can lead to effective anti-tumor vaccine properties including lysis, cytokine release and memory in the majority of the population."}, "[3]": {"details": "after the second and third stimulations with ImMucin"}},
  "note": "No end group written: not given here.",
  "data": [
    {"sequence": "MTPGTQSPFFLLLLLTVLTVV [ImMucin]", "values": [
      {"measurement": "Lysis % (1:50)", "setting": "HT-29", "value": 0, "unit": "%"},
      {"measurement": "Lysis % (1:50)", "setting": "K562", "value": 1.7, "unit": "%"},
      {"measurement": "Lysis % (1:50)", "setting": "MDA-MB-231", "value": 23, "unit": "%"},
      {"measurement": "Lysis % (1:50)", "setting": "Molt-4", "value": 1.1, "unit": "%"},
      {"measurement": "Lysis % (1:50)", "setting": "MDA-MB-486", "value": 0, "unit": "%"},
      {"measurement": "TNF-Alfa secretion", "setting": "[1]; after the 3rd stimulation on day 14", "value": "completely disappeared"},
      {"measurement": "IL-2 secretion from CD4+ T cells", "setting": "[1]; [3]", "value": "increased dramatically"},
      {"measurement": "INF-gamma secretion mainly from CD8+ T cells", "setting": "[1]; [3]", "value": "increased dramatically"},
      {"measurement": "TNF-Alfa secretion, peak", "setting": "[1]; during the first stimulation with ImMucin (FIG. 1)", "value": 5, "unit": "ng/mL"},
      {"measurement": "TNF-Alfa secretion", "setting": "[1]; following a second stimulation with ImMucin", "value": "decreased"},
      {"measurement": "blood samples in which ImMucin specific activation could be observed", "setting": "[2]", "value": 12}
    ]}
  ]
}
